# Values quoted from earlier work in patent US12678435B2, “Prevention and/or treatment of contrast-induced acute kidney injury” (Saghmos Therapeutics Inc., priority 2016, dated 2026).
# Test system: patients with high serum creatinine levels undergoing coronary angiography/angioplasty
# Conditions: four Phase 2 clinical trials; compared with isotonic saline; published in Onbasili 2007, Rahman 2012, Shehata 2014, Liu 2015
compound,measurement,value
COc1ccc(CN2CCNCC2)c(OC)c1OC [Trimetazidine],reducing the risk of contrast-induced nephropathy (CIN),more effective than isotonic saline in reducing the risk of contrast-induced nephropathy (CIN)
